Test results from ChEMBL document CHEMBL5727873, “Heterocyclic compounds and uses thereof” (2020).

Biological target: T1, Histone deacetylase 8 (Homo sapiens, UniProt Q9BY41)
T1 sequence (Q9BY41 whole entry): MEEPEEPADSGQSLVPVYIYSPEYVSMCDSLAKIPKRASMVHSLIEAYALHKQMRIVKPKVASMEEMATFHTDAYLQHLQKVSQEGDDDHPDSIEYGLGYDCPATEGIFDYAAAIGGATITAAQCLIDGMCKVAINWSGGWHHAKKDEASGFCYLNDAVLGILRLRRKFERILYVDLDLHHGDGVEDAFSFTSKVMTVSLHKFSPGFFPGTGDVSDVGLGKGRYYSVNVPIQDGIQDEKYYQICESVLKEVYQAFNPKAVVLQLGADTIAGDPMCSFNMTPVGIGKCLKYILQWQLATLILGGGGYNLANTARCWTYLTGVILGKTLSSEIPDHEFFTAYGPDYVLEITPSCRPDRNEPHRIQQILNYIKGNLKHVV
Experiment: Enzymatic Assay: HDAC-Glo I/II Assay Kit was purchased from Promega Corporation (Madison, Wis.), including the following components: HDAC-Glo I/II Buffer (25 mM Tris buffer, pH 8.0, supplemented with 137 mM: NaCl, 2.7 mM KCl, 1% v/v Triton X-100 and 1 mM: MgCl2), luminogenic substrates Boc-GAK(Ac)-aminoluciferin (HDAC-Glo I/II substrate), proprietary developer reagent (containing trypsin). Assay:The HDAC8 reaction was performed at room temperature in white 384-well polystyrene, flat-bottom microtiter plate (Greiner Bio-one, Monroe, N.C.) in a final volume of 20 μL. Test compounds were first diluted serially in DMSO and 100 nL were transferred to the plate wells by Echo 550 (Labcyte, Sunnyvale, Calif.) before the addition of other reaction components. The final concentration of DMSO in the assay was 0.5%. The HDAC-Glo I/II assay reagent was prepared by rehydration of lyophilized HDAC-Glo I/II substrate in 10 mL. HDAC-Glo I/II assay buffer followed with the addition of 10 μL of developer reagent. 10 uL of 3 nM HDAC8 in the HDAC-Glo I/II assay buffer were first dispensed into the microliter plate containing the compounds and incubated at room temperature for 30 min. The reactions were initiated with the addition of 10 uL HDAC-Glo I/II assay reagent with Multidrop.

IC50	SMILES
< 50 nM	Cn1nc(C(Cc2ccccc2)C(=O)NO)c2ccc(Cl)cc21 (configuration not stated)
> 500 nM	CC1CCN(c2cccc3nn(C(Cc4ccccc4)C(=O)NO)cc23)CC1 (configuration not stated)
